Data as given in ChEMBL document CHEMBL4024742, “Pharmaceutical Approaches to Target Antibiotic Resistance Mechanisms” (J Med Chem, 2017).
≈ marks a conversion by molar mass, not a printed value. Values belong to the compound of their own block, whether it stands above or below them.

What was measured:
Escherichia coli [1] = assay: Potentiation of ciprofloxacin induced-antimicrobial activity against Escherichia coli AB1157 assessed as fold reduction in ciprofloxacin MIC at 12.5 uM by broth microdilution method; assay type: functional
Escherichia coli [2] = assay: Potentiation of levofloxacin induced-antimicrobial activity against Escherichia coli AB1157 assessed as fold reduction in levofloxacin MIC at 12.5 uM by broth microdilution method; assay type: functional
Escherichia coli [3] = assay: Potentiation of piperacillin induced-antimicrobial activity against Escherichia coli AB1157 assessed as fold reduction in piperacillin MIC at 12.5 uM by broth microdilution method; assay type: functional
Escherichia coli [4] = assay: Potentiation of 0.016 ug/ml ciprofloxacin induced-antimicrobial activity against Escherichia coli AB1157 assessed as fold reduction in cell viability at 3.13 uM after 4 hrs by time kill assay; assay type: functional
Escherichia coli [5] = assay: Potentiation of florfenicol induced-antimicrobial activity against multi drug-resistant Escherichia coli AG112 assessed as fold reduction in florfenicol MIC at 100 ug/ml by broth microdilution method; assay type: functional
Escherichia coli [6] = assay: Potentiation of ciprofloxacin induced-antimicrobial activity against multi drug-resistant Escherichia coli AG112 assessed as fold reduction in ciprofloxacin MIC at 100 ug/ml by broth microdilution method; assay type: functional
Escherichia coli [7] = assay: Potentiation of tetracycline induced-antimicrobial activity against multi drug-resistant Escherichia coli AG112 assessed as fold reduction in tetracycline MIC at 100 ug/ml by broth microdilution method; assay type: functional
Pseudomonas aeruginosa [8] = assay: Antibiofilm activity against wild-type Pseudomonas aeruginosa PAO1 after 24 hrs by crystal violet staining based assay; assay type: functional; conditions: PAO1, 24 h
Staphylococcus aureus [9] = assay: Antibiofilm activity against methicillin-resistant Staphylococcus aureus BAA-1770; assay type: functional
Staphylococcus aureus [10] = assay: Antibiofilm activity against methicillin-resistant Staphylococcus aureus BAA-1765; assay type: functional
Staphylococcus aureus [11] = assay: Antibiofilm activity against methicillin-resistant Staphylococcus aureus BAA-43300; assay type: functional
[12] = test system: Staphylococcus epidermidis; assay: Antibacterial activity against planktonic Staphylococcus epidermidis RP62A after 24 hrs by broth microdilution method; assay type: functional
Staphylococcus aureus [13] = assay: Antibacterial activity against planktonic Staphylococcus aureus ATCC 29213 after 24 hrs by broth microdilution method; assay type: functional; conditions: ATCC 29213, 24 h
Staphylococcus aureus [14] = assay: Antibacterial activity against planktonic Staphylococcus aureus ATCC 43866 after 24 hrs by broth microdilution method; assay type: functional; conditions: ATCC 43866, 24 h
Staphylococcus aureus [15] = assay: Inhibition of biofilm formation in Staphylococcus aureus ATCC 29213 at 6.2 ug/ml after 24 hrs by MTT assay; assay type: functional; conditions: ATCC 29213, 24 h
Staphylococcus aureus [16] = assay: Inhibition of biofilm formation in Staphylococcus aureus ATCC 43866 at 25 ug/ml after 24 hrs by MTT assay; assay type: functional; conditions: ATCC 43866, 24 h
[17] = molecular target: T1, Quinolone resistance protein NorA (Staphylococcus aureus, UniProt P0A0J7); assay: Inhibition of Staphylococcus aureus 1199B NorA assessed as reduction in ethidium bromide efflux by fluorescence assay
T1 sequence (P0A0J7 whole entry): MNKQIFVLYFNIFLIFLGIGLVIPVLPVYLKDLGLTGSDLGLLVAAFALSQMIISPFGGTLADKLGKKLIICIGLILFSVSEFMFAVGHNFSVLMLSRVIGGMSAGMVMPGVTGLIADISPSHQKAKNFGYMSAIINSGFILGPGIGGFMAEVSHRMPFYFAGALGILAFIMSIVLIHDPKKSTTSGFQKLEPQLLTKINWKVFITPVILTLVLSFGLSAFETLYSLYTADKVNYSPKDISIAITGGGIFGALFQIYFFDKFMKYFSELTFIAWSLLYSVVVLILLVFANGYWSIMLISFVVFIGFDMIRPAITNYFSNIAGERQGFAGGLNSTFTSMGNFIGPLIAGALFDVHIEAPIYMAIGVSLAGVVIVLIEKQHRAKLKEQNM

Staphylococcus aureus [18] = assay: Potentiation of ciprofloxacin induced-antimicrobial activity against Staphylococcus aureus ATCC 29213 assessed as fold reduction in ciprofloxacin MIC at 31.25 uM by broth microdilution method; assay type: functional
Staphylococcus aureus [19] = assay: Antibacterial activity against methicillin-sensitive Staphylococcus aureus by broth microdilution method; assay type: functional
Staphylococcus aureus [20] = assay: Antibacterial activity against glycopeptide-intermediate Staphylococcus aureus by broth microdilution method; assay type: functional
Staphylococcus aureus [21] = assay: Inhibition of biofilm formation in Staphylococcus aureus ATCC 29213 at 0.045 ug/ml after 24 hrs by MTT assay; assay type: functional; conditions: ATCC 29213, 24 h
Staphylococcus aureus [22] = assay: Inhibition of biofilm formation in Staphylococcus aureus ATCC 25923 at 0.045 ug/ml after 24 hrs by MTT assay; assay type: functional; conditions: ATCC 25923, 24 h
Staphylococcus aureus [23] = assay: Inhibition of biofilm formation in Staphylococcus aureus 657 at 0.045 ug/ml after 24 hrs by MTT assay; assay type: functional; conditions: Staphylococcus aureus, 657, 24 h
Staphylococcus aureus [24] = assay: Inhibition of biofilm formation in Staphylococcus aureus 702 at 0.045 ug/ml after 24 hrs by MTT assay; assay type: functional; conditions: Staphylococcus aureus, 702, 24 h
[25] = test system: Staphylococcus epidermidis; assay: Inhibition of biofilm formation in Staphylococcus epidermidis DSM 3269 at 0.045 ug/ml after 24 hrs by MTT assay; assay type: functional; conditions: DSM 3269, 24 h
[26] = test system: Staphylococcus epidermidis; assay: Inhibition of biofilm formation in Staphylococcus epidermidis RP62A at 0.045 ug/ml after 24 hrs by MTT assay; assay type: functional
Staphylococcus aureus [27] = assay: Antibiofilm activity against methicillin-resistant Staphylococcus aureus BAA-44 at 100 uM after 24 hrs by crystal violet staining based assay; assay type: functional; conditions: BAA-44, 24 h
Staphylococcus aureus [28] = assay: Antibiofilm activity against methicillin-resistant Staphylococcus aureus BAA-44 after 24 hrs by crystal violet staining based assay; assay type: functional; conditions: BAA-44, 24 h
Acinetobacter baumannii = assay: Antibiofilm activity against multi drug-resistant Acinetobacter baumannii ATCC 19606 assessed as biofilm dispersion after 24 hrs by crystal violet staining based assay; assay type: functional; conditions: ATCC 19606 = CIP 70.34 = JCM 6841, 24 h
Pseudomonas aeruginosa [29] = assay: Antimicrobial activity against Pseudomonas aeruginosa; assay type: functional
Escherichia coli [30] = assay: Antimicrobial activity against Escherichia coli; assay type: functional
Enterobacter = assay: Antimicrobial activity against Enterobacter; assay type: functional
[31] = Inhibition of Escherichia coli PBP2
[32] = Inhibition of bacterial beta-lactamase TEM-1 using nitrocefin as substrate by spectrophotometric analysis; set-up: species or system Bacteria
[33] = Inhibition of bacterial beta-lactamase CMY-2 using nitrocefin as substrate by spectrophotometric analysis; set-up: species or system Bacteria
[34] = Inhibition of bacterial beta-lactamase KPC-2 using nitrocefin as substrate by spectrophotometric analysis; set-up: species or system Bacteria
[35] = Inhibition of bacterial beta-lactamase CTX-M-9 using nitrocefin as substrate by spectrophotometric analysis; set-up: species or system Bacteria

SMILES: CC1(C)Cc2c(C#N)c(SCCc3ccccc3)nc(N3CCOCC3)c2CO1
fold change (FC) (Escherichia coli [1]): 2 | fold change (FC) (Escherichia coli [2]): 4 | fold change (FC) (Escherichia coli [3]): 8 | fold change (FC) (Escherichia coli [4]): 10000

SMILES: c1ccc2c(CN3CCNCC3)cccc2c1
fold change (FC) (Escherichia coli [5]): 4 | fold change (FC) (Escherichia coli [6]): 4 | fold change (FC) (Escherichia coli [7]): 4

IC50 (Pseudomonas aeruginosa [8]): 4 µM
SMILES: Cc1cc2nc(N)[nH]c2cc1C

SMILES: CCCCCc1ccc(C(=O)NCCn2cc(CCCCCc3c[nH]c(NCc4ccc(CCCC)cc4)n3)nn2)cc1
IC50 (Staphylococcus aureus [9]): 16 to 18 µM | IC50 (Staphylococcus aureus [10]): 16 to 18 µM | IC50 (Staphylococcus aureus [11]): 16 to 18 µM

MIC [12]: 1.5 to 12.5 µg/mL (≈ 5.24 to 43.7 µM) | MIC (Staphylococcus aureus [13]): 1.5 to 12.5 µg/mL (≈ 5.24 to 43.7 µM) | MIC (Staphylococcus aureus [14]): 1.5 to 12.5 µg/mL (≈ 5.24 to 43.7 µM)
SMILES: Cc1nn(C)c([N-]C(=O)c2ccc([N+](=O)[O-])cc2)c1[N+]#N
inhibition at 6.2 µg/mL (Staphylococcus aureus [15]): 86.5% | inhibition at 25 µg/mL (Staphylococcus aureus [16]): 69 to 96%

SMILES: COc1cc(O)c2c(C)c(-c3ccccc3)c(=O)[nH]c2c1
IC50 [17]: 18 µM | fold change (FC) (Staphylococcus aureus [18]): 4 | MIC (Staphylococcus aureus [19]): 17.6 to 35.1 µg/mL (≈ 62.6 to 125 µM) | MIC (Staphylococcus aureus [20]): 17.6 to 35.1 µg/mL (≈ 62.6 to 125 µM)

SMILES: O=C(c1cc(Br)ccc1O)c1[nH]c(Cl)c(Cl)c1Br
inhibition at 0.045 µg/mL (Staphylococcus aureus [21]): > 50% | inhibition at 0.045 µg/mL (Staphylococcus aureus [22]): > 50% | inhibition at 0.045 µg/mL (Staphylococcus aureus [23]): > 50% | inhibition at 0.045 µg/mL (Staphylococcus aureus [24]): > 50% | inhibition at 0.045 µg/mL [25]: > 50% | inhibition at 0.045 µg/mL [26]: > 50%

SMILES: CCCCOc1ccc(/C=C(\C)Cn2cc(CCCCCc3c[nH]c(N)n3)nn2)cc1
inhibition at 100 µM (Staphylococcus aureus [27]): > 94% | IC50 (Staphylococcus aureus [28]): 8.55 µM | IC50 (Acinetobacter baumannii): 44.7 µM

MIC (Pseudomonas aeruginosa [29]): ≤ 2 µg/mL | MIC (Escherichia coli [30]): ≤ 2 µg/mL | MIC (Enterobacter): ≤ 2 µg/mL | IC50 [31]: 3.2 µM | IC50 [32]: 0.008 to 0.327 µM | IC50 [33]: 0.008 to 0.327 µM | IC50 [34]: 0.008 to 0.327 µM | IC50 [35]: 0.008 to 0.327 µM
SMILES: CC(=O)NNC(=O)[C@@H]1CC[C@@H]2CN1C(=O)N2OS(=O)(=O)[O-].[Na+]
